Assay results reported in patent US20140045895A1, “PHARMACEUTICAL DEPOT FOR 5-FLUORO-2-[[(1S)-1-(5-FLUORO-2-PYRIDYL)ETHYL]AMINO]-6-[(5-ISOPROPOXY-1H-PYRAZOL-3-YL)AMINO]PYRIDINE-3-CARBONITRILE” (ASTRAZENECA AB, priority 2010, published 2014).

Legend:
[1] = Hydrolytic stability of PA in the acidic microclimate created by polymer degradation; format: physicochemical
[2] = Plasma levels after intra-articular injection of 50/50 PLGA formulation; format: in vivo, rats; details: 200 μg dose in 50/50 PLGA IA formulation into knees, rat plasma
Description: Animals were anaesthetised with isofluorane and 30 μl PLGA microspheres containing 200 μg injected into each knee using a Hamilton syringe and 25G needle. The vial of microspheres was vortexed before injection of each animal to try and obtain a homogeneous injection solution. Animals were recovered and returned to their home cages until plasma sampling.
Animals were warmed in a hot box for 10 minutes at 42° C. before being placed in a restrainer and 200 μl blood sampled from the lateral tail vein into a Sarsted Multivette 600 Lithium Heparin tube (cat no 15.1673) attached to a 21G needle. Tubes were placed on a roller until centrifugation at 13000 rpm for 5 minutes to sediment red blood cells. Plasma was decanted and stored at −20° C. until analysis by DMPK. Samples were taken 1 h, 3 h, 6 h, 24 h, 48 h, 96 h and 168 h post-injection.
The levels shown are for a 200 μg dose of compound.

- hydrolytic stability in acidic microclimate [1]: hydrolytically stable
- period over which release of compound was seen (plasma) [2]: 168 h
Structure (SMILES): CC(C)Oc1cc(Nc2nc(N[C@@H](C)c3ccc(F)cn3)c(C#N)cc2F)n[nH]1 [PA, 5-fluoro-2-[[(1S)-1-(5-fluoro-2-pyridyl)ethyl]amino]-6-[(5-isopropoxy-1H-pyrazol-3-yl)amino]pyridine-3-carbonitrile]
